Assay results published in the NIST ThermoML archive (doi:10.1021/je700339f).

Conditions: Liquid

ClCCCl [1,2-dichloroethane]
mass density [kg/m3]
Conditions	308.15 K	318.15 K
100 kPa	1231	1216.4
500 kPa	1231.4	1216.7
1000 kPa	1232	1217.4
1500 kPa	1232.5	1218
2000 kPa	1233	1218.5
2500 kPa	1233.5	1219.1
3100 kPa	1234.2	1219.8
3600 kPa	1234.7	1220.3
4100 kPa	1235.2	1220.9
4600 kPa	1235.7	1221.4
5100 kPa	1236.2	1222
5600 kPa	1236.9	1222.6
6100 kPa	1237.3	1223.1
6600 kPa	1237.9	1223.6
7100 kPa	1238.4	1224.1
7600 kPa	1238.6	1224.7
8100 kPa	1239.3	1225.2
8600 kPa	1239.8	1225.8
9200 kPa	1240.4	1226.3
9600 kPa	1240.9	1226.9
10100 kPa	1241.3	1227.5
10600 kPa	1241.8	1227.9
11100 kPa	1242.3	1228.4
11600 kPa	1242.8	1229
12100 kPa	1243.4	1229.5
12500 kPa	–	1230
12600 kPa	1243.8	–
13100 kPa	1244.2	1230.6
13600 kPa	1244.7	1231
14200 kPa	1245.3	1231.6
14700 kPa	1245.8	1232.1
15200 kPa	1246.4	1232.7
15600 kPa	–	1233.1
15700 kPa	1246.8	–
16200 kPa	1247.2	–
16300 kPa	–	1233.8
16700 kPa	1247.7	–
16800 kPa	–	1234.2
17200 kPa	1248.2	–
17300 kPa	–	1234.8
17800 kPa	1248.7	1235.2
18200 kPa	–	1235.5
18300 kPa	1249.2	–
18800 kPa	1249.6	–
18900 kPa	–	1236.2
19200 kPa	1250.1	1236.5
19700 kPa	1250.6	1237.1
20200 kPa	1251	1237.5
